Measured values reported in patent publication US9975874B2, “Factor XIa inhibitors” (Merck Sharp & Dohme Corp., priority 2014, dated 2018).
pIC50: −log10 of the molar value. Read-outs that look alike come from different tables or passages of the source.

Assays:
[1] = target: purified human Factor XIa (Homo sapiens (Human), UniProt P03951); assay: Factor XIa Assay; type: biochemical
Experimental: The effectiveness of a compound of the present invention as an inhibitor of Coagulation Factor XIa can be determined using a relevant purified serine protease, and an appropriate synthetic substrate. The rate of hydrolysis of the chromogenic or fluorogenic substrate by the relevant serine protease was measured both in the absence and presence of compounds of the present invention. Assays were conducted at room temperature or at 37° C. […] A decrease in the rate of fluorescence change in the presence of inhibitor is indicative of enzyme inhibition. Such methods are known to one skilled in the art. […]
Factor XIa determinations were made in 50 mM HEPES buffer at pH 7.4 containing 150 mM NaCl, 5 mM CaCl2, and 0.1% PEG 8000 (polyethylene glycol; JT Baker or Fisher Scientific). Determinations were made using purified human Factor XIa at a final concentration of 40 pM (Sekisui Diagnostics) and the synthetic substrate, Z-Gly-Pro-Arg-AFC, TFA salt (Sigma #C0980) at a concentration of 100 μM.
Times required to achieve equilibration between enzyme and inhibitor were determined in control experiments. Initial velocities of product formation in the absence (Vo) or presence of inhibitor (Vi) were measured. Assuming competitive inhibition, and that unity is negligible compared Km/[S], [I]/e, and [I]/e (where [S], [I], and e respectively represent the total concentrations, of substrate, inhibitor and enzyme), the equilibrium constant (Ki) for dissociation of the inhibitor from the enzyme can be obtained from the dependence of Vo/Vi on [I] shown in the following equation.

[2] = target: purified Human plasma kallikrein (Homo sapiens (Human), UniProt P03952); assay: Kallikrein Assay; type: biochemical
Experimental: The effectiveness of a compound of the present invention as an inhibitor of Kallikrein can be determined using a relevant purified serine protease, and an appropriate synthetic substrate. The rate of hydrolysis of the chromogenic or fluorogenic substrate by the relevant serine protease was measured both in the absence and presence of compounds of the present invention. Assays were conducted at room temperature or at 37° C. […] A decrease in the rate of fluorescence change in the presence of inhibitor is indicative of enzyme inhibition. Such methods are known to one skilled in the art. The results of this assay are expressed as the inhibitory constant, Ki.
Kallikrein determinations were made in 50 mM HEPES buffer at pH 7.4 containing 150 mM NaCl, 5 mM CaCl2, and 0.1% PEG 8000 (polyethylene glycol; Fisher Scientific). Determinations were made using purified Human plasma kallikrein at a final concentration of 0.5 nM (Enzyme Research Laboratories) and the synthetic substrate, Acetyl-K-P-R-AFC (Sigma # C6608) at a concentration of […].
Times required to achieve equilibration between enzyme and inhibitor were determined in control experiments. The reactions were performed under linear progress curve conditions and fluorescence increase measured at 405 Ex/510 Em nm. […] IC50 was determined by inflection point from a four parameter logistic curve fit. Ki was calculated using the Cheng Prusoff equation, Ki=IC50/(1+([S]/Km)).

[3] = substrate Z-Gly-Pro-Arg-AFC 100 μM, 40 pM enzyme, pH 7.4, read-out: FXIa IC50
[4] = Plasma kallikrein, substrate Acetyl-K-P-R-AFC, 0.5 nM enzyme, pH 7.4, read-out: PK IC50

purified Human plasma kallikrein, sequence (P03952 391-638): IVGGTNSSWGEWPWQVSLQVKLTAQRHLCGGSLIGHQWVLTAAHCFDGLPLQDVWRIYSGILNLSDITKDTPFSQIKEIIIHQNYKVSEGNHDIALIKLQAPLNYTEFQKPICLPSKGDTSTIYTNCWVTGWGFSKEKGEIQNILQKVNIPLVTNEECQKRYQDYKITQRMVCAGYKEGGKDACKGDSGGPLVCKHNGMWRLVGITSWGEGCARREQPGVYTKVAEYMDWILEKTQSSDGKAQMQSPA
purified Human plasma kallikrein, sequence (P03952 20-390 partner): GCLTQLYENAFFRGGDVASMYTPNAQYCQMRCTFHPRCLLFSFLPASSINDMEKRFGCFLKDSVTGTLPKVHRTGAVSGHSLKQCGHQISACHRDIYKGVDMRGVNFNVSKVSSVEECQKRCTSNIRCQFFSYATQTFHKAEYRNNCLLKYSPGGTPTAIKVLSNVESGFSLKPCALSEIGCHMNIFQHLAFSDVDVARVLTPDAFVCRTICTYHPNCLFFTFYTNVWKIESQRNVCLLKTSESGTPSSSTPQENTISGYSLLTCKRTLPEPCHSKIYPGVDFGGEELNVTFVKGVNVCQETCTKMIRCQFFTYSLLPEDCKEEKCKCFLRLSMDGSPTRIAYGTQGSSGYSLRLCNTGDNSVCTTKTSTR
purified human Factor XIa, sequence (P03951 388-625): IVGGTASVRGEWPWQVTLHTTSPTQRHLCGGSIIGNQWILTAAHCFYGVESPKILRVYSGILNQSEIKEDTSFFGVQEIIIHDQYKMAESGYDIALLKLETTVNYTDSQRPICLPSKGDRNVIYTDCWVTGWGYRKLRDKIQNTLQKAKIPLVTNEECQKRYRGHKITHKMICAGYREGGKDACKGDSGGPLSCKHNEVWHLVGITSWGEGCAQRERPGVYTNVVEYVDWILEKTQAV
purified human Factor XIa, sequence (P03951 19-387 partner): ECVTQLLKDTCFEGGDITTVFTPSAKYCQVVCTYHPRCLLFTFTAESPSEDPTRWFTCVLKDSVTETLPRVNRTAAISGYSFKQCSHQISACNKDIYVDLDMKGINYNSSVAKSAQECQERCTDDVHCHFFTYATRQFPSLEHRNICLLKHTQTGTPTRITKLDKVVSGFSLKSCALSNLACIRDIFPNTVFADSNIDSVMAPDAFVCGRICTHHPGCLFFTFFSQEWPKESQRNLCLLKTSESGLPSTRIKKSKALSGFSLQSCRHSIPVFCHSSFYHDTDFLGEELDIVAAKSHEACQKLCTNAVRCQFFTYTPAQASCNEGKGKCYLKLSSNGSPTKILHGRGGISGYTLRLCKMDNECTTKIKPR

Compound | pIC50 [1, 3] | pIC50 [2, 4] | also measured
O=C(CF)N1CCC(c2cccc([C@H](Cc3ccccc3)c3ccc(-c4cc(Cl)ccc4-n4cnnn4)c[n+]3[O-])c2)CC1 [Example 38, 5-[5-chloro-2-(1H-tetrazol-1-yl)phenyl]-2-[(1S)-1-{3-[1-(fluoroacetyl)piperidin-4-yl]phenyl}-2-phenylethyl] pyridine 1-oxide] |  |  | pIC50 [1]: 7.96; pIC50 [2]: 6.49
CS(=O)(=O)c1ccc(-c2cccc([C@@H](Cc3ccccc3)c3ccc(-c4cc(Cl)ccc4-n4cnnn4)c[n+]3[O-])c2)cc1 [Example 5] | 5.00 |  | 
O=C(O)c1cccc(-c2cc(F)cc([C@@H](Cc3ccccc3)c3ccc(-c4cc(Cl)ccc4-n4cnnn4)c[n+]3[O-])c2)c1 [Example 15] | 6.63 |  | 
COC(=O)Nc1ccc(-c2cccc([C@@H](Cc3ccccc3)c3ccc(-c4cc(Cl)ccc4-n4cnnn4)c[n+]3[O-])c2)cc1 [Example 2, (R)-5-(5-Chloro-2-(1H-tetrazol-1-yl)phenyl)-2-(1-(4′-((methoxycarbonyl)amino)-[1,1′-biphenyl]-3-yl)-2-phenylethyl)pyridine 1-oxide] | 6.37 |  | 
O=C(O)c1cccc(-c2cccc(C(CC3CC3)c3ccc(-c4cc(Cl)ccc4-n4cnnn4)c[n+]3[O-])c2)c1 (stereo not shown) [Example 19] | 6.00 |  | 
O=C(C(F)F)N1CCC(c2cccc([C@H](Cc3ccccc3)c3ccc(-c4cc(Cl)ccc4-n4cnnn4)c[n+]3[O-])c2)CC1 [Example 37, 5-[5-chloro-2-(1H-tetrazol-1-yl)phenyl]-2-[(1S)-1-{3-[1-(difluoroacetyl)piperidin-4-yl]phenyl}-2-phenylethyl] pyridine 1-oxide] |  | 6.27 | 
CCNC(=O)N1CCC(c2cccc([C@@H](Cc3ccccc3)c3ccc(-c4cc(Cl)ccc4-n4cnnn4)c[n+]3[O-])c2)CC1 [Example 27, 4-{3-[(1R)-1-{5-[5-chloro-2-(1H-tetrazol-1-yl)phenyl]-1-oxidopyridin-2-yl}-2-phenylethyl]phenyl}-N-ethyl-piperidine-1-carboxamide] | 6.00 |  | 
CC(C)(C)OC(=O)N1CCC(c2cccc([C@@H](Cc3ccccc3)c3ccc(-c4cc(Cl)ccc4-n4cnnn4)c[n+]3[O-])c2)CC1 [Example 25, tert-butyl 4-{3-[(1R)-1-{5-[5-chloro-2-(1H-tetrazol-1-yl)phenyl]-1-oxidopyridin-2-yl}-2-phenylethyl]phenyl} piperidine-1-carboxylate] | 6.00 |  | 
CC(C)(C)OC(=O)N1CCC(c2cccc([C@H](Cc3ccccc3)c3ccc(-c4cc(Cl)ccc4-n4cnnn4)c[n+]3[O-])c2)CC1 [Example 26, tert-butyl 4-{3-[(1S)-1-{5-[5-chloro-2-(1H-tetrazol-1-yl)phenyl]-1-oxidopyridin-2-yl}-2-phenylethyl]phenyl} piperidine-1-carboxylate] | 6.61 |  | 
O=C(O)c1ccc(-c2cccc(C(Cc3ccccc3)c3ccc(-c4cc(Cl)ccc4-n4cnnn4)c[n+]3[O-])c2)cc1 (single isomer, unassigned) [Example 12] | 5.46 |  | 
CC(C)COC(=O)N1CCC(c2cccc([C@H](Cc3ccccc3)c3ccc(-c4cc(Cl)ccc4-n4cnnn4)c[n+]3[O-])c2)CC1 [Example 42, 2-methylpropyl 4-{3-[(1S)-1-{5-[5-chloro-2-(1H-tetrazol-1-yl)phenyl]-1-oxidopyridin-2-yl}-2-phenylethyl]phenyl} piperidine-1-carboxylate] | 6.25 |  | 
O=C(OCC(F)(F)F)N1CCC(c2cccc([C@H](Cc3ccccc3)c3ccc(-c4cc(Cl)ccc4-n4cnnn4)c[n+]3[O-])c2)CC1 [Example 46, 2,2,2-trifluoroethyl 4-{3-[(1S)-1-{5-[5-chloro-2-(1H-tetrazol-1-yl)phenyl]-1-oxidopyridin-2-yl}-2-phenylethyl]phenyl} piperidine-1-carboxylate] | 6.32 |  | 

Continued by rising pIC50 [1, 3], values first:

pIC50 [1, 3] | pIC50 [2, 4] | Compound | also measured
6.67 |  | [O-][n+]1cc(-c2cc(Cl)ccc2-n2cnnn2)ccc1C(Cc1ccccc1)c1cccc(C2CCNCC2)c1 (racemic) [Example 20, 5-[5-chloro-2-(1H-tetrazol-1-yl)phenyl]-2-[2-phenyl-1-(3-piperidin-4-ylphenyl)ethyl] pyridine 1-oxide] | 
6.73 |  | O=C(OCC1CC1)N1CCC(c2cccc([C@H](Cc3ccccc3)c3ccc(-c4cc(Cl)ccc4-n4cnnn4)c[n+]3[O-])c2)CC1 [Example 44, cyclopropyl-methyl 4-{3-[1S)-1-{5-[5-chloro-2-(1H-tetrazol-1-yl)phenyl]-1-oxidopyridin-2-yl}-2-phenylethyl] phenyl} piperidine-1-carboxylate] | 
6.88 |  | CCCOC(=O)N1CCC(c2cccc([C@H](Cc3ccccc3)c3ccc(-c4cc(Cl)ccc4-n4cnnn4)c[n+]3[O-])c2)CC1 [Example 41, propyl 4-{3-[(1S)-1-{5-[5-chloro-2-(1H-tetrazol-1-yl)phenyl]-1-oxidopyridin-2-yl}-2-phenylethyl]phenyl} piperidine-1-carboxylate] | 
7.07 |  | COC(=O)N1CCC(c2cccc(C(Cc3ccccc3)c3ccc(-c4cc(Cl)ccc4-n4cnnn4)c[n+]3[O-])c2)CC1 (racemic) [Example 23, methyl 4-[3-(1-{5-[5-chloro-2-(1H-tetrazol-1-yl)phenyl]-1-oxidopyridin-2-yl}-2-phenylethyl)phenyl] piperidine-1-carboxylate] | 
7.20 |  | O=C(OCCF)N1CCC(c2cccc([C@H](Cc3ccccc3)c3ccc(-c4cc(Cl)ccc4-n4cnnn4)c[n+]3[O-])c2)CC1 [Example 43, 2-fluoroethyl 4-{3-[(1S)-1-{5-[5-chloro-2-(1H-tetrazol-1-yl)phenyl]-1-oxidopyridin-2-yl}-2-phenylethyl]phenyl} piperidine-1-carboxylate] | 
7.36 | 6.18 | COCCOC(=O)N1CCC(c2cccc([C@H](Cc3ccccc3)c3ccc(-c4cc(Cl)ccc4-n4cnnn4)c[n+]3[O-])c2)CC1 [Example 45, 2-methoxyethyl 4-{3-[(1S)-1-{5-[5-chloro-2-(1H-tetrazol-1-yl)phenyl]-1-1-oxidopyridin-2-yl}-2-phenylethyl]phenyl} piperidine-1-carboxylate] | 
7.39 | 5.16 | O=C(O)c1cccc(-c2cccc([C@@H](Cc3ccccc3)c3ccc(-c4cc(Cl)ccc4-n4cnnn4)c[n+]3[O-])c2)c1 (stereo in doubt) [Example 8, 2-(1-(3′-carboxy-[1,1′-biphenyl]-3-yl)-2-phenylethyl)-5-(5-chloro-2-(1H-tetrazol-1-yl)phenyl)pyridine 1-oxide] | 
7.70 | 6.06 | O=C(NC1CCCC1)N1CCC(c2cccc([C@H](Cc3ccccc3)c3ccc(-c4cc(Cl)ccc4-n4cnnn4)c[n+]3[O-])c2)CC1 [Example 47, 4-{3-[(1S)-1-{5-[5-chloro-2-(1H-tetrazol-1-yl)phenyl]-1-oxidopyridin-2-yl}-2-phenylethyl]phenyl}-N-cyclopentyl piperidine-1-carboxamide] | 
7.93 | 6.38 | O=C(C1COC1)N1CCC(c2cccc([C@H](Cc3ccccc3)c3ccc(-c4cc(Cl)ccc4-n4cnnn4)c[n+]3[O-])c2)CC1 [Example 40] | 
7.97 | 6.43 | O=C(C1CC1)N1CCC(c2cccc([C@H](Cc3ccccc3)c3ccc(-c4cc(Cl)ccc4-n4cnnn4)c[n+]3[O-])c2)CC1 [Example 34, 5-[5-chloro-2-(1H-tetrazol-1-yl)phenyl]-2-[(1S)-1-{3-[1-(cyclopropyl-carbonyl)piperidin-4-yl]phenyl}-2-phenylethyl] pyridine 1-oxide] | 
8.14 | 6.57 | CCNC(=O)N1CCC(c2cccc([C@H](Cc3ccccc3)c3ccc(-c4cc(Cl)ccc4-n4cnnn4)c[n+]3[O-])c2)CC1 [Example 28, 4-{3-[(1S)-1-{5-[5-chloro-2-(1H-tetrazol-1-yl)phenyl]-1-oxidopyridin-2-yl}-2-phenylethyl]phenyl}-N-ethylpiperidine-1-carboxamide] | 
8.48 | 6.75 | NC(=O)c1cccc(-c2cc(F)cc([C@H](Cc3ccccc3)c3ccc(-c4cc(Cl)ccc4-n4cnnn4)c[n+]3[O-])c2)c1 [Example 16] | 
9.52 | 7.72 | O=C(O)c1cccc(-c2cc(F)cc([C@H](Cc3ccccc3)c3ccc(-c4cc(Cl)ccc4-n4cnnn4)c[n+]3[O-])c2)c1 [Example 14] | 
